Experimental data: PubChem BioAssay (NCI)
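Assay format: 96-well plates, 48-hour exposure. Here, GI50 denotes the concentration required for 50% inhibition of growth. TGI denotes the concentration required for complete inhibition of growth.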

System: MDA-MB-468 breast
Assay: growth of human tumour cells (NCI), 48 h

| Structure (SMILES) | GI50 [nM] | TGI [nM] |
| --- | --- | --- |
| CCC(C)[C@H]1OC(=O)[C@H](C(C)C)N(C)C(=O)[C@@H](C(C)C)OC(=O)[C@H](C(C)C)N(C)C(=O)[C@@H](C(C)CC)OC(=O)[C@H](C(C)C)N(C)C1=O (stereo not given in full) | 440 | 1350 |
| NC(=O)c1ccc(C2C3=C(CCCC3=O)OC3=C2C(=O)c2ccccc2C3=O)cc1 (stereo not given) | 201 | 649 |
| COc1cc2nc(-c3ccc(C(F)(F)F)cc3)cc(OCCCN3CCCCC3)c2cc1OC | 1030 | 3290 |
| O=C1CCCN1CC#CCN1CCCC1 | > 100000 | > 100000 |
| COc1cc(Cn2c(-c3nonc3N)nc3ccccc32)ccc1C | 228 |  |
| CCCCCCN(CCCCCC)CC(O)c1ccc2c3c(cccc13)CC2 (stereo not given) | 3430 | 14400 |
| CNC(=O)c1cc(-n2ccc3cc(NC(=O)Nc4ccc(N5CCOCC5)c(C(F)(F)F)c4)ccc32)ccn1 | 12800 | > 33300 |
| Cc1c2ccc(N(C)c3ccnc(Nc4cccc(S(N)(=O)=O)c4)n3)cc2nn1C | 8210 | > 23500 |
| Cn1cc(CNCC2CCN(c3ncc(C(=O)NO)cn3)CC2)c2ccccc21 | < 10 | 476 |
| C=C(C)C(=O)O[C@H]1C[C@@]2(C)OC(=CC2=O)/C(C)=C\[C@H]2OC(=O)C(=C)[C@H]12 | 622 | 1560 |
| CN(C)C(=O)O[C@@H]1CN[C@@H](C#Cc2cc3ncnc(Nc4ccc(OCc5cccc(F)c5)c(Cl)c4)c3s2)C1 | 1740 | 12700 |
| CCN(CCNc1ccc(C)c2sc3ccccc3c(=O)c12)CC(C)(C)O | 1740 | 5030 |
| COc1ccc(CN2c3ccccc3CCc3ccccc32)cc1F | 399 | > 100000 |
| CCN(CC)CCCC(C)Nc1c2ccc(C)cc2nc2ccc(OC)cc12 (stereo not given) | 1280 | 2840 |
| C/C(=N\NC(N)=S)c1nc2ccc(Cl)cc2[nH]1 | 1970 | 19100 |
| COc1ccc(C2CC(n3nnnc3-c3ccccc3)=NN2)cc1 (stereo not given) | 3980 | 47600 |
| Cc1cc(N/N=C/c2nc(-c3ccc(Cl)cc3)oc2C)c2cc(Cl)ccc2n1 | 1780 | 3550 |
| CC(C)[C@H]1C(=O)N[C@@H](CCCN=C(N)N)C(=O)NCC(=O)N[C@@H](CC(=O)O)C(=O)N[C@H](Cc2ccccc2)C(=O)N1C | 403 | 2180 |
